35 compounds from patent publication US20230374143A1, “A SORTILIN ANTAGONIST FOR USE IN THE PREVENTION OR TREATMENT OF HEARING LOSS” (Insusense ApS, priority 2020, published 2023) can be followed below.

The target of the first data set is T1, SORT (Homo sapiens, UniProt Q99523).
T1 sequence (Q99523 78-831): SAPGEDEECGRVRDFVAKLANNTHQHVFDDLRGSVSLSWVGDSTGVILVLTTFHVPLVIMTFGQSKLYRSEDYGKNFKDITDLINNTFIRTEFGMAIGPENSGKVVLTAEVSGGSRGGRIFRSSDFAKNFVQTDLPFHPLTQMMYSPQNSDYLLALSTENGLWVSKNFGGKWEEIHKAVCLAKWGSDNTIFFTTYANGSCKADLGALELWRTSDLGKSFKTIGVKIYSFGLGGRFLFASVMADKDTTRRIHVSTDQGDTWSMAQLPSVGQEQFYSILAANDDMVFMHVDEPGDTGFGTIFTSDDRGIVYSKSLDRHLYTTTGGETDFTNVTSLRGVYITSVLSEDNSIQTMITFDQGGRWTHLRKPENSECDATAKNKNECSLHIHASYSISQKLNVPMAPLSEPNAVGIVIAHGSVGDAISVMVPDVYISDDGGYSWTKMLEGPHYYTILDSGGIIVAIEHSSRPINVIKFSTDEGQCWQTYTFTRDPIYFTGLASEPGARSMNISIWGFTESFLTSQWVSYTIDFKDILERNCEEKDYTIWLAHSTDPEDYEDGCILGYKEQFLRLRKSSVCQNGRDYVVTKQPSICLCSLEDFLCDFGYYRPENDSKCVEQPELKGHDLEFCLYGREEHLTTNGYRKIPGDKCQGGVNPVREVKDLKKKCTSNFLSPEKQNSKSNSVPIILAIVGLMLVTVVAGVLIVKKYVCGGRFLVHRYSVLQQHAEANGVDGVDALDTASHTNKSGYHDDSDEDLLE
The data set can be described thus: progranulin (PGRN) peptide/SORT homogenous time-resolved fluorescence (HTRF) assay. It counts as binding. Conditions: SORT 1 nM, biotinylated 18-mer PGRN peptide 4 nM, TR-FRET. Here is the method: To determine the IC50s of compounds bound to SORT and thus preventing its interaction with the biotinylated 18-mer PGRN peptide a time-resolved fluorescence resonance energy transfer (TR-FRET) format was used. All test compounds were dissolved in DMSO; the final concentration of DMSO in the reaction buffer was 1%. Compounds were prepared in a ten-point, three-fold serial dilution scheme using an acoustic dispenser. A solution of SORT protein in assay buffer (10 mM HEPES, pH 7.3, 150 mM NaCl, 0.005% Brij-35 and 0.01% BSA, final concentration of SORT 1 nM) was added to each well and pre-incubated with compounds or DMSO vehicle at ambient temperature for 10 min with gentle shaking. Next, biotinylated 18-mer PGRN peptide was added to each well (final concentration 4 nM) and the binding reactions were incubated at ambient temperature for 30 min with gentle shaking. Solutions of SA/Dylight in assay buffer were added to each well, immediately followed by addition of Eu/anti-His in assay buffer. […] Data were analyzed using ABase and a 4-parameter logistic fit based on the Levenberg-Marquardt algorithm.^9
`CC(C)(C)CC[C@H](NC(=O)c1cc(Cl)cc(Cl)c1)C(=O)O` (single isomer, unassigned) [Example 42] gave an IC50 of 0.17 µM.

`CC(C)(C)CC[C@H](NC(=O)c1cc(Cl)c[nH]1)C(=O)O` (single isomer, unassigned) [Example 43] showed an IC50 of 0.09 µM.

In turn, `CC(C)(C)CC[C@H](NC(=O)c1ccc(Oc2ccccc2)nc1)C(=O)O` (single isomer, unassigned) [Example 44] yielded an IC50 of 0.02 µM.

In turn, `CC(C)(C)c1cc(C(=O)O)n(Cc2ccccc2)n1` [Example 31, 1-benzyl-3-tert-butyl-1H-pyrazole-5-carboxylic acid] showed an IC50 of 2 µM.

In the case of `CC(C)(C)c1cc(C(=O)O)n(Cc2cc(Cl)cc(Cl)c2)n1` [Example 32, 3-tert-butyl-1-[(3,5-dichlorophenyl)methyl]-1H-pyrazole-5-carboxylic acid], 2.1 µM corresponded to half-maximal inhibition (IC50). The IC50 values of the last two compounds are within 1.5-fold of each other.

`CC(C)(C)c1cc(C(=O)O)n(Cc2ccc(-n3cccn3)nc2)n1` [Example 33, 3-tert-butyl-1-{[6-(1H-pyrazol-1-yl)pyridin-3-yl]methyl}-1H-pyrazole-5-carboxylic acid] showed an IC50 of 3 µM.

`CC(C)(C)c1cc(C(=O)O)n(Cc2ccc(Oc3ccccc3)nc2)n1` [Example 34, 3-tert-butyl-1-[(6-phenoxypyridin-3-yl)methyl]-1H-pyrazole-5-carboxylic acid]: the midpoint of inhibition, the IC50, lay at 2.1 µM. This IC50 and that of the compound before are within 1.5-fold of each other.

On to `Cn1nc(C(C)(C)C)cc1C(=O)O` [Example 35, 3-tert-butyl-1-methyl-1H-pyrazole-5-carboxylic acid], for which the IC50 was 8.3 µM.

With `CC(C)(C)c1cc(C(=O)O)n(-c2ccccc2)n1` [Example 36, 3-tert-butyl-1-phenyl-1H-pyrazole-5-carboxylic acid], half-maximal inhibition (IC50) was put at 7.6 µM.

Take `CC(C)(C)c1cc(C(=O)O)n(CCc2ccccc2)n1` [Example 37, 3-tert-butyl-1-(2-phenylethyl)-1H-pyrazole-5-carboxylic acid]: the IC50 was 5.3 µM.

The compound `CC(C)(C)c1cc(C(=O)O)n(Cc2nnc(-c3ccccc3)o2)n1` [Example 38, 3-tert-butyl-1-[(5-phenyl-1,3,4-oxadiazol-2-yl)methyl]-1H-pyrazole-5-carboxylic acid] came in with an IC50 of 0.49 µM.

In the case of `CC(C)(C)Cc1cc(C(=O)O)n(Cc2ccccc2)n1` [Example 39, 1-benzyl-3-(2,2-dimethylpropyl)-1H-pyrazole-5-carboxylic acid], the IC50 came to 6.6 µM.

In turn, `CC(C)c1cc(C(=O)O)n(CCc2ccccc2)n1` [Example 40, 1-(2-phenylethyl)-3-(propan-2-yl)-1H-pyrazole-5-carboxylic acid] gave an IC50 above 67 µM.

`CC(C)(C)CCc1cc(C(=O)O)n(Cc2ccccc2)n1` [Example 41, 1-benzyl-3-(3,3-dimethylbutyl)-1H-pyrazole-5-carboxylic acid] came in with an IC50 above 67 µM.

Consider `CC(C)C[C@H](NC(=O)c1ccc(Cl)c(Cl)c1)C(=O)O` [Example 45, (2S)-2-[(3,4-dichlorophenyl)formamido]-4-methylpentanoic acid], for which the IC50 came out at 4.3 µM. That is a single-digit micromolar value.

`CC(C)C[C@H](NC(=O)c1cc(Cl)cc(Cl)c1)C(=O)O` [Example 46, (2S)-2-[(3,5-dichlorophenyl)formamido]-4-methylpentanoic acid] came in with an IC50 of 2.7 µM.

In the case of `CC(C)C[C@H](NC(=O)c1cccc(Cl)c1)C(=O)O` [Example 47, (2S)-2-[(3-chlorophenyl)formamido]-4-methylpentanoic acid], half-maximal inhibition (IC50) required 4.5 µM.

As for `COc1cccc(C(=O)N[C@@H](CC(C)C)C(=O)O)c1` [Example 48, (2S)-2-[(3-methoxyphenyl)formamido]-4-methylpentanoic acid], the midpoint of inhibition, the IC50, lay at 6.8 µM.

For the compound `CC(C)C[C@H](NC(=O)C(C)(C)Cc1ccc(Cl)cc1)C(=O)O` [Example 49, (2S)-2-{2-[(4-chlorophenyl)methyl]-2-methylpropanamido}-4-methylpentanoic acid], inhibition was half-maximal at 6.8 µM (IC50).

Turning to `CC(C)C[C@H](NC(=O)c1cnn(C)c1)C(=O)O` [Example 50, (2S)-4-methyl-2-[(1-methyl-1H-pyrazol-4-yl)formamido]pentanoic acid], the IC50 was determined as 5.3 µM. This IC50 and that of the compound before are within 1.5-fold of each other.

As for `CC(C)C[C@H](NC(=O)c1cnc2ccccc2n1)C(=O)O` [Example 51, (2S)-4-methyl-2-[(quinoxalin-2-yl)formamido]pentanoic acid], the IC50 was found to be 6.3 µM.

Compound `CC(C)C[C@H](NC(=O)C1CCCC1)C(=O)O` [Example 52, (2S)-2-(cyclopentylformamido)-4-methylpentanoic acid] displayed an IC50 of 25.3 µM.

Compound `CC(C)C[C@H](NC(=O)C1CN(Cc2cc(Cl)cc(Cl)c2)CCO1)C(=O)O` (stereo partly drawn) [Example 53, (2S)-2-({4-[(3,5-dichlorophenyl)methyl]morpholin-2-yl}formamido)-4-methylpentanoic acid] returned an IC50 of 14.4 µM.

Regarding `C=C(C)C[C@H](NC(=O)c1cc(Cl)cc(Cl)c1)C(=O)O` [Example 54, (2S)-2-[(3,5-dichlorophenyl)formamido]-4-methylpent-4-enoic acid], the IC50 was determined as 17.1 µM.

`O=C(N[C@@H](CC1CC1)C(=O)O)c1cc(Cl)cc(Cl)c1` [Example 55, (2S)-3-cyclopropyl-2-[(3,5-dichlorophenyl)formamido]propanoic acid] displayed an IC50 of 10.7 µM.

`O=C(N[C@@H](CC1CCCCC1)C(=O)O)c1cc(Cl)cc(Cl)c1` [Example 56, (2S)-3-cyclohexyl-2-[(3,5-dichlorophenyl)formamido]propanoic acid] had an IC50 of 2.3 µM.

Compound `CC(C)(C)C[C@H](NC(=O)c1cc(Cl)cc(Cl)c1)C(=O)O` [Example 57, (2S)-2-[(3,5-dichlorophenyl)formamido]-4,4-dimethylpentanoic acid] registered an IC50 of 0.35 µM.

Compound `O=C(N[C@@H](CC12CC(C1)C2)C(=O)O)c1cc(Cl)cc(Cl)c1` [Example 58, (2S)-3-{bicyclo[1.1.1]pentan-1-yl}-2-[(3,5-dichlorophenyl)formamido]propanoic acid] returned an IC50 of 18 µM.

Compound `O=C(N[C@@H](Cc1ccccc1)C(=O)O)c1cc(Cl)cc(Cl)c1` [Example 59, (2S)-2-[(3,5-dichlorophenyl)formamido]-3-phenylpropanoic acid] showed an IC50 above 67 µM.

In turn, `CC(C)(C)OC[C@H](NC(=O)c1cc(Cl)cc(Cl)c1)C(=O)O` [Example 60, (2S)-3-(tert-butoxy)-2-[(3,5-dichlorophenyl)formamido]propanoic acid] gave an IC50 of 1.5 µM.

In turn, `CC(OC(C)(C)C)[C@H](NC(=O)c1cc(Cl)cc(Cl)c1)C(=O)O` (stereo partly drawn) [Example 61, (2S)-3-(tert-butoxy)-2-[(3,5-dichlorophenyl)formamido]butanoic acid] yielded an IC50 above 67 µM.

As to `CC(C)(C)CC(NC(=O)c1cc(Cl)cc(Cl)c1)c1nn[nH]n1` (centres unmarked) [Example 62, 3,5-dichloro-N-[3,3-dimethyl-1-(2H-1,2,3,4-tetrazol-5-yl)butyl]benzamide], the midpoint of inhibition, the IC50, lay at 6.9 µM.

`CC(C)C[C@H](NC(c1cc(Cl)cc(Cl)c1)C(F)(F)F)C(=O)O` (stereo partly drawn) [Example 63, (2S)-2-{[1-(3,5-dichlorophenyl)-2,2,2-trifluoroethyl]amino}-4-methylpentanoic acid] returned a concentration for half-maximal inhibition (IC50) of 10.8 µM. This IC50 is about 1.6-fold higher than that of the compound before.

As for `CC(C)(C)C[C@H](NC(=O)c1ccc(Oc2ccccc2)nc1)C(=O)O` [Example 64, (2S)-4,4-dimethyl-2-[(6-phenoxypyridin-3-yl)formamido]pentanoic acid], the concentration for half-maximal inhibition (IC50) was 0.065 µM.

Test system in the next data set: not listed separately
The data set can be described thus: Poloxamer gelling tests at 20° C. and 37° C. The class given is physicochemical. Conditions: 14% poloxamer gel, compound at 1 mg/mL. From the text: In a preferred embodiment, the sortilin antagonists herein described may be administered in a gel formulation, preferably a Poloxamer 407 gel formulation. Said formulation may comprise the following excipients, reactants and solvents; Poloxamer 407, 5% glucose, Sodium dihydrogenophosphate, Di-sodium hydrogenophosphate, acetonitrile, trifluoroacetic acid and de-ionized water. Preferably, the gel formulation is a 14% poloxamer solution in diluted pH 7.4 phosphate buffer (0.013M) in deionized water. […] (body temperature), see Table 1 below. […] Accordingly, the aforementioned gel formulation is an appropriate vehicle solution to administer said compounds.
As for `Cc1cccc(NC(=O)c2ccc(C(F)(F)F)cc2C(=O)O)n1` [Example 8, 2-[(6-methylpyridin-2-yl)carbamoyl]-5-(trifluoromethyl)benzoic acid], the “properties of the poloxamer gel formulation after addition of compound” value is “unaltered”.
